Measured values published in patent US11060059B2, “Methods of producing T cell populations enriched for stable regulatory T-cells” (The USA, as represented by the Secretary, Department of …, priority 2011, dated 2021).

Tested on: Foxp3+Helios+ Tregs
Experiment: Foxp3 and Helios staining (flow cytometry) of Tregs stimulated/expanded in vitro with anti-CD3/anti-CD28 and IL-2
Assay type: cell-based, human
Source text: To determine if a correlation exists between Helios expression and TSDR methylation status, four different CD4^+ subsets (Foxp3^+Helios^+, Foxp3^+Helios^−, Foxp3^−Helios^+, and Foxp3^−Helios^−) were isolated and expression of various proteins analyzed. Briefly, human PBMCs were obtained from 20-80 year-old healthy male donors by Department of Transfusion Medicine at National Institutes of Health. CD4^+CD25^hiCD127^− Tregs were isolated by cell sorting on a FACSAria. Sorted Treg (0.2×10^6) cells were re-suspended in complete RPMI-1640 supplemented with 10% heat-inactivated fetal calf serum, and stimulated in plates coated with anti-CD3ϵ (10 μg/ml) and anti-CD28 (2 μg/ml) in the presence of IL-2 (150 U/ml) for 5-6 days. Stimulated cells were washed in RPMI 1640-10 media twice and expanded in complete RPMI 1640-10 with recombinant IL-2 (150 U/ml) for 5-10 days in the presence of Treg-expander magnetic beads (Cell:Bead=4:1). To evaluate the purity of sorted Tregs, cells were stained with anti-Foxp3 and anti-Helios (Biolegend) in Foxp3-staining buffer (eBioscience). All flow cytometry was performed on a FACS LSRII flow cytometer (Becton Dickinson) and analyzed with FlowJo software (TreeStar).
Initially, two potential candidates were selected for testing: TGFβ, and the toll-like receptor 9 (TLR9) agonist CpG oligodeoxynucleotide (ODN). […]

Row | Molecule | effect on the stabilization of Foxp3+Helios+ T cells (TLR 7 / TLR 8 agonists at 10 μM compared with CpG ODN (FIG. 6B)) | stabilization / increase of the Foxp3+Helios+ population, single agents (CD4+CD25+ cells, 5 days with agent alone, then 7 days without (FIG. 2B))
1 | CCCCNc1nc(N)c2[nH]c(=O)n(Cc3ccc(C(=O)NCC(=O)O)cc3)c2n1 [CL264] | Neither the TLR 8 nor the TLR 7 agonists had any effect | –
2 | TGFβ: TGFβ, candidate factor added at 5 ng/ml during Treg stimulation | – | modest increase
